Test results from patent publication US8957064B2, “Fused pyrimidines” (Bayer Intellectual Property GmbH, priority 2009, dated 2015).

How the values were obtained:
[1] = molecular target: His-tagged human recombinant kinase full-length Akt1 (Homo sapiens (Human), UniProt P31749); assay: Akt1 kinase assay (Akt1 TR-FRET assay, Biological Assay 1.0); type: biochemical; conditions: 10 μM ATP, 1 μM biotinylated peptide substrate, 60 min at 22° C.
Procedure, shortened: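 Insect-cell-expressed full-length His-Akt1 (~0.05 ng/μl) preincubated 15 min with compound, then reacted 60 min at 22 °C with 10 μM ATP and 1 μM biotinylated peptide (final), pH 7.5. Phosphopeptide detected by HTRF (665/620 nm ratio). Data normalised to no-inhibitor and no-enzyme controls.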

[2] = molecular target: His-tagged human recombinant kinase full-length Akt2 activated by PDK1 (Homo sapiens (Human), UniProt P31751); assay: Akt2 kinase assay (Akt2 TR-FRET assay, Biological Assay 2.0); type: biochemical; conditions: 10 μM ATP, 1 μM biotinylated peptide substrate, 60 min at 22° C.
Chain of His-tagged human recombinant kinase full-length Akt2 activated by PDK1 (P31751 whole entry): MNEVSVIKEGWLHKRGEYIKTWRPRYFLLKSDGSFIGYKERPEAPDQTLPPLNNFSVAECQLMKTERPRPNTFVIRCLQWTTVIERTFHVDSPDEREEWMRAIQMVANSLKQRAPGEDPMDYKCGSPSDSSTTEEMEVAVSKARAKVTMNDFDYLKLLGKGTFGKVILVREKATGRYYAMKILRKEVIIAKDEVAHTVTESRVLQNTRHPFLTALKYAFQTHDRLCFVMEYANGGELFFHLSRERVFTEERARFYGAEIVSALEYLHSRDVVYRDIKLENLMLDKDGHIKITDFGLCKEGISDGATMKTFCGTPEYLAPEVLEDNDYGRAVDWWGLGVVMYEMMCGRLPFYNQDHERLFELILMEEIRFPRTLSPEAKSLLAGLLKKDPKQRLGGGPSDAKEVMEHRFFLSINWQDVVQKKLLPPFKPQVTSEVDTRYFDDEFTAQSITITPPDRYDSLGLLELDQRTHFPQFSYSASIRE
Procedure, shortened: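 Compound was pre-incubated with enzyme (~0.2 ng/µl final) for 15 min at 22 °C in Tris pH 7.5, 5 mM MgCl2, then reacted 60 min with 10 µM ATP and 1 µM biotinylated peptide. Phosphopeptide was detected by TR-FRET (665/622 nm ratio). Data were normalised to no-inhibitor (0%) and no-enzyme (100%) controls.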

Chain of His-tagged human recombinant kinase full-length Akt1 (P31749 whole entry): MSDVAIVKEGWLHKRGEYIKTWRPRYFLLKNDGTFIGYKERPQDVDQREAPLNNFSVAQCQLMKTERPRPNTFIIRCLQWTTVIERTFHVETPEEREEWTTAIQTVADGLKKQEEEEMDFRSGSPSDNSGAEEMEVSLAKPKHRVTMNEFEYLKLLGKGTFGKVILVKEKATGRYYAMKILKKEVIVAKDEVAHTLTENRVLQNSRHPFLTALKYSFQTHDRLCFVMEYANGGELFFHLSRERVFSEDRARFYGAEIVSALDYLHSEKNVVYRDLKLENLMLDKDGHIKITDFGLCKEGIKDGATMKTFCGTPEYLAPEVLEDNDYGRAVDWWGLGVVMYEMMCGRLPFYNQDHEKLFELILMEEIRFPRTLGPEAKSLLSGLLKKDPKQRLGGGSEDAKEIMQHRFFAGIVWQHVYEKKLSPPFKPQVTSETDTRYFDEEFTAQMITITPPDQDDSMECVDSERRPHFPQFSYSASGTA

Compound: Fc1ccc(-c2cn3ccnc3nc2-c2ccc(CN3CCC(c4n[nH]c(-c5cnccn5)n4)CC3)cc2)cc1 [Example 52.2, 6-(4-fluorophenyl)-7-{4-[4-(5-pyrazine-2-yl-1H-[1,2,4]triazole-3-yl]-piperidine-1-ylmethyl]-phenyl}-imidazo[1,2-a]pyrimidine]
- IC50 [1]: 186 nM
- IC50 [2]: 1440 nM

Compound: Cc1cccc(-c2nc(C3CCN(Cc4ccc(-c5nc6ncc(Br)n6cc5-c5ccc(F)cc5)cc4)CC3)n[nH]2)n1 [Example 53.0, 3-bromo-6-(4-fluorophenyl)-7-(4-{4-[5-(6-methylpyridine-2-yl)-1H-[1,2,4]triazole-3-yl]-piperidine-1-ylmethyl}-phenyl)-imidazo[1,2-a]pyrimidine]
- IC50 [1]: 11 nM
- IC50 [2]: 7 nM

Compound: Fc1ccc(-c2cn3c(Cl)cnc3nc2-c2ccc(CN3CCC(c4n[nH]c(-c5ccccn5)n4)CC3)cc2)cc1 [Example 53.1, 3-chloro-6-(4-fluorophenyl)-7-{4-[4-(5-pyridine-2-yl-1H-[1,2,4]triazole-3-yl)-piperidine-1-ylmethyl]-phenyl}-imidazo[1,2-a]pyrimidine]
- IC50 [1]: 25 nM
- IC50 [2]: 33 nM

Compound: Cc1cccc(-c2nc(C3CCN(Cc4ccc(-c5nc6nccn6cc5-c5ccccc5F)cc4)CC3)n[nH]2)n1 [Example 54.0, 6-(2-fluorophenyl)-7-(4-{4-[5-(6-methylpyridine-2-yl)-1H-[1,2,4]triazole-3-yl]-piperidine-1-ylmethyl}-phenyl)-imidazo[1,2-a]pyrimidine]
- IC50 [1]: 3 nM
- IC50 [2]: 17 nM

Compound: Brc1cnc2nc(-c3ccc(CN4CC(c5n[nH]c(-c6ccccn6)n5)C4)cc3)c(-c3ccccc3)cn12 [Example 55.0, 3-bromo-6-phenyl-7-{4-{3-[5-(pyridine-2-yl)-1H-[1,2,4]triazole-3-yl)-azetidine-1-ylmethyl]-phenyl}-imidazo[1,2-a]pyrimidine]
- IC50 [1]: 6 nM
- IC50 [2]: 14 nM

Compound: Cc1cn2cc(-c3ccccc3)c(-c3ccc(CN4CC(c5n[nH]c(-c6ccccn6)n5)C4)cc3)nc2n1 [Example 56.0, 2-methyl-6-phenyl-7-{4-{3-[5-(pyridine-2-yl)-1H-[1,2,4]triazole-3-yl)-azetidine-1-ylmethyl]-phenyl}-imidazo[1,2-a]pyrimidine]
- IC50 [1]: 10 nM
- IC50 [2]: 47 nM

Compound: Cc1cccc(-c2nc(C3CN(Cc4ccc(-c5nc6nc(C)c(Br)n6cc5-c5ccccc5)cc4)C3)n[nH]2)n1 [Example 57.0, 3-bromo-2-methyl-7-{4-{3-[5-(6-methylpyridine-2-yl)-1H-[1,2,4]triazole-3-yl)-azetidine-1-ylmethyl]-phenyl}-6-phenyl-imidazo[1,2-a]pyrimidine]
- IC50 [1]: 6 nM
- IC50 [2]: 3 nM

Compound: CNc1c(-c2ccccc2)c(-c2ccc(CN3CC(c4n[nH]c(-c5ccccn5)n4)C3)cc2)nc2nccn12 [Example 58.0, methyl-(6-phenyl-7-{4-{3-[5-(pyridine-2-yl)-1H-[1,2,4]triazole-3-yl)-azetidine-1-ylmethyl]-phenyl}-imidazo[1,2-a]pyrimidin-5-yl)-amine]
- IC50 [1]: 30 nM
- IC50 [2]: 476 nM

Compound: CNc1c(-c2ccccc2)c(-c2ccc(CN3CC(c4n[nH]c(-c5ccccn5)n4)C3)cc2)nc2ncc(Br)n12 [Example 59.0, (3-bromo-6-phenyl-7-{4-{3-[5-(pyridine-2-yl)-1H-[1,2,4]triazole-3-yl)-azetidine-1-ylmethyl]-phenyl}-imidazo[1,2-a]pyrimidin-5-yl)-methylamine]
- IC50 [1]: 42 nM
- IC50 [2]: 128 nM

Compound: CNc1c(-c2ccccc2)c(-c2ccc(CN3CC(c4n[nH]c(-c5ccccn5)n4)C3)cc2)nc2nc(C)cn12 [Example 60.0, methyl-(2-methyl-6-phenyl-7-{4-{3-[5-(pyridine-2-yl)-1H-[1,2,4]triazole-3-yl)-azetidine-1-ylmethyl]-phenyl}-imidazo[1,2-a]pyrimidin-5-yl)-amine]
- IC50 [1]: 16 nM
- IC50 [2]: 55 nM

Compound: CNc1c(-c2ccccc2)c(-c2ccc(CN3CC(c4n[nH]c(-c5cccc(C)n5)n4)C3)cc2)nc2nc(C)cn12 [Example 61.0, methyl-(2-methyl-7-{4-{3-[5-(6-methylpyridine-2-yl)-1H-[1,2,4]triazole-3-yl)-azetidine-1-ylmethyl]-phenyl}-6-phenyl-imidazo[1,2-a]pyrimidin-5-yl)-amine]
- IC50 [1]: 11 nM
- IC50 [2]: 19 nM

Compound: OCc1cnn2cc(-c3c(F)cccc3F)c(-c3ccc(CN4CC(c5n[nH]c(-c6ccccn6)n5)C4)cc3)nc12 [Example 62.0, (6-(2,6-difluorophenyl)-5-{4-[3-[5-pyridine-2-yl-1H-[1,2,4]triazole-3-yl)-azetidine-1-ylmethyl]-phenyl}-pyrazolo[1,5-a]pyrimidin-3-yl)-methanol]
- IC50 [1]: 55 nM
- IC50 [2]: 801 nM

Compound: COc1nn2cc(-c3c(F)cccc3F)c(-c3ccc(CN4CC(c5n[nH]c(-c6ccccn6)n5)C4)cc3)nc2c1CO [Example 63.0, (6-(2,6-difluorophenyl)-2-methoxy-5-{4-[3-[5-pyridine-2-yl-1H-[1,2,4]triazole-3-yl)-azetidine-1-ylmethyl]-phenyl}-pyrazolo[1,5-a]pyrimidin-3-yl)-methanol]
- IC50 [1]: 14 nM
- IC50 [2]: 118 nM

Compound: COc1nn2cc(-c3c(F)cccc3F)c(-c3ccc(CN4CC(c5n[nH]c(-c6cccc(C)n6)n5)C4)cc3)nc2c1CO [Example 63.1]
- IC50 [1]: 8 nM
- IC50 [2]: 34 nM

Compound: COc1nn2cc(-c3c(F)cccc3F)c(-c3ccc(CN4CCC(c5n[nH]c(-c6cccc(C)n6)n5)CC4)cc3)nc2c1CO [Example 63.2]
- IC50 [1]: 18 nM
- IC50 [2]: 108 nM

Compound: COc1nn2cc(-c3c(F)cccc3F)c(-c3ccc(CN4CCC(c5n[nH]c(-c6ccccn6)n5)CC4)cc3)nc2c1CO [Example 63.3, (6-(2,6-difluorophenyl)-2-methoxy-5-{4-[4-(5-pyridine-2-yl-1H-[1,2,4]triazole-3-yl)-piperidine-1-ylmethyl]-phenyl}-pyrazolo[1,5-a]pyrimidin-3-yl)-methanol]
- IC50 [1]: 10 nM
- IC50 [2]: 97 nM

Compound: Cc1cn2c(NC(C)C)c(-c3ccccc3)c(-c3ccc(CN4CC(c5n[nH]c(-c6ccccn6)n5)C4)cc3)nc2n1 [Example 64.0, isopropyl-(2-methyl-6-phenyl-7-{4-{3-[5-(pyridine-2-yl)-1H-[1,2,4]triazole-3-yl)-azetidine-1-ylmethyl]-phenyl}-imidazo[1,2-a]pyrimidin-5-yl)-amine]
- IC50 [1]: 30 nM
- IC50 [2]: 39 nM

Compound: Cc1cccc(-c2nc(C3CN(Cc4ccc(-c5nc6nc(C)cn6c(NC(C)C)c5-c5ccccc5)cc4)C3)n[nH]2)n1 [Example 65.0, isopropyl-(2-methyl-6-phenyl-7-{4-{3-[5-(6-methylpyridine-2-yl)-1H-[1,2,4]triazole-3-yl)-azetidine-1-ylmethyl]-phenyl}-imidazo[1,2-a]pyrimidin-5-yl)-amine]
- IC50 [1]: 33 nM
- IC50 [2]: 36 nM

Compound: CC(C)Nc1c(-c2ccccc2)c(-c2ccc(CN3CC(c4n[nH]c(-c5ccccn5)n4)C3)cc2)nc2nccn12 [Example 66.0, isopropyl-(6-phenyl-7-{4-{3-[5-(pyridine-2-yl)-1H-[1,2,4]triazole-3-yl)-azetidine-1-ylmethyl]-phenyl}-imidazo[1,2-a]pyrimidin-5-yl)-amine]
- IC50 [1]: 25 nM
- IC50 [2]: 53 nM

Compound: CNc1c(-c2ccccc2)c(-c2ccc(CN3CC(c4n[nH]c(-c5ccccn5)n4)C3)cc2)nc2nc(-c3ccccn3)nn12 [Example 67.0]
- IC50 [1]: 29 nM
- IC50 [2]: 145 nM

Compound: CC(C)Nc1c(-c2ccccc2)c(-c2ccc(CN3CC(c4n[nH]c(-c5ccccn5)n4)C3)cc2)nc2nc(-c3ccccn3)nn12 [Example 68.0]
- IC50 [1]: 24 nM
- IC50 [2]: 88 nM

Compound: Cc1cccc(-c2nc(C3CN(Cc4ccc(-c5nc6nc(-c7ccccn7)nn6c(NC(C)C)c5-c5ccccc5)cc4)C3)n[nH]2)n1 [Example 69.0, isopropyl-(6-phenyl-2-pyridine-2-yl-5-{4-[3-[5-(6-methylpyridine-2-yl)-1H-[1,2,4]triazole-3-yl)-azetidine-1-ylmethyl]-phenyl}-[1,2,4]triazolo[1,5-a]pyrimidin-7-yl)-amine]
- IC50 [1]: 14 nM
- IC50 [2]: 16 nM

Compound: c1ccc(-c2cn3nc(C4CC4)nc3nc2-c2ccc(CN3CC(c4n[nH]c(-c5ccccn5)n4)C3)cc2)cc1 [Example 70.0]
- IC50 [1]: 7 nM
- IC50 [2]: 5 nM

Compound: CSc1nc2nc(-c3ccc(CN4CC(c5n[nH]c(-c6cccc(C)n6)n5)C4)cc3)c(-c3ccccc3)cn2n1 [Example 71.0, 5-(4-{3-[5-(6-methyl-pyridin-2-yl)-1H-[1,2,4]triazol-3-yl]-azetidin-1-ylmethyl}-phenyl)-2-methylsulfanyl-6-phenyl-[1,2,4]triazolo[1,5-a]pyrimidine]
- IC50 [1]: 5 nM
- IC50 [2]: 4 nM

Compound: CSc1nc2nc(-c3ccc(CN4CCC(c5n[nH]c(-c6ncccn6)n5)CC4)cc3)c(-c3ccccc3)cn2n1 [Example 72.2, 2-methylsulfanyl-6-phenyl-5-{4-[4-(5-pyrimidin-2-yl-1H-[1,2,4]triazol-3-yl)-piperidin-1-ylmethyl]-phenyl}-[1,2,4]triazolo[1,5-a]pyrimidine]
- IC50 [1]: 77 nM
- IC50 [2]: 222 nM

Compound: CSc1nc2nc(-c3ccc(CN4CCC(c5n[nH]c(-c6cnccn6)n5)CC4)cc3)c(-c3ccccc3)cn2n1 [Example 72.3, 2-methylsulfanyl-6-phenyl-5-{4-[4-(5-pyrazin-2-yl-1H-[1,2,4]triazol-3-yl)-piperidin-1-ylmethyl]-phenyl}-[1,2,4]triazolo[1,5-a]pyrimidine]
- IC50 [1]: 26 nM
- IC50 [2]: 80 nM
